# In EP2405274A1, “Monitoring anticoagulant therapy and identifying reversible direct factor Xa inhibitors” (Good biomarker Sciences B.V., priority 2010, dated 2012):
# What was measured:
# Assay type in all cases: biochemical
# [1] = system: pooled human citrated plasma; assay: Prothrombin time (PT) clotting assay with Simplastin excel S; parameters: Rivaroxaban-prolonged PT / Ratio range: dose or concentration left out as unconfirmed
# Description: (§1) The experiments here below were performed with pooled human citrated plasma which was made from a minimum of individual contributions of 6 apparently healthy volunteers. Blood was collected ( 9 vol blood/ 1 volume 0.11 M citrate) in tubes and mixed directly after withdrawal. The Blood was cooled by submersion in ice water and centrifuged in a cooled, swing-out centrifuge for at least 20 minutes at 2000 x g. Subsequently, plasma was carefully separated from the cells and collected in an intermediate , cooled plastic tube. The collected plasma was mixed and centrifuged similarly after which platelet-poor-plasma was collected, aliquoted and after snap-freezing stored at -60 °C or below.
# (§2) Different PT assays were used using PT assays commercially available as Simplastin excel S (BioMerieux), Innovin (Dade Behring), Neoplastin CI plus (Stago), Recombiplastin (Instrumentation Laboratories) and Thromborel S (Dade Behring). In each case The reagent consisted of Tissue factor, lipid and CaCl2. Tests were performed in a clotting analyser (AMAX Destiny, Kordia Lifesciences, Leiden, NL). In each case a cuvette was filled with 100 µl plasma and incubated for 1 minute at 37 °C. Pre-warmed PT reagent was added (200 µl) and recording of clotting was started. The AMAX recorded blood clotting by reduction in speed of a turning rod (mechanical detection).
# (§3) For spiking experiments with rivaroxaban (Xarelto, from Bayer), the plasma sample was spiked with rivaroxaban at different concentrations between […], and the clotting times were again recorded using the different PT reagents. The results are plotted in Figure 1.
# [2] = system: pooled human citrated plasma; assay: Prothrombin time (PT) clotting assay with Innovin
# Description: as §1, §2, §3
# [3] = system: pooled human citrated plasma; assay: Prothrombin time (PT) clotting assay with Neoplastin CI plus
# Description: as §1, §2, §3
# [4] = system: pooled human citrated plasma; assay: Prothrombin time (PT) clotting assay with Recombiplastin
# Description: as §1, §2, §3
# [5] = system: pooled human citrated plasma; assay: Prothrombin time (PT) clotting assay with Thromborel S
# Description: as §1, §2, §3
# [6] = system: pooled human citrated plasma; assay: Prothrombin time (PT) clotting assay with Thromboplastin S
# Description: as §1
# (§4) Different PT assays were used using PT assays commercially available as Simplastin excel S (BioMerieux), Innovin (Dade Behring), Neoplastin CI plus (Stago), Recombiplastin (Instrumentation Laboratories) and Thromborel S (Dade Behring). In each case The reagent consisted of Tissue factor, lipid and CaCl2. […] The AMAX recorded blood clotting by reduction in speed of a turning rod (mechanical detection).
# (§5) For spiking experiments with rivaroxaban (Xarelto, from Bayer), the plasma sample was spiked with rivaroxaban at different concentrations between […], and the clotting times were again recorded using the different PT reagents. […]
# [7] = system: pooled human citrated plasma; assay: Prothrombin time (PT) clotting assay with PT fibrinogen
# Description: as §1, §2, §3
# (§6) Example 1a was repeated with PT clotting assays Thromboplastin S (Biopool, through Trinity),PT fibrinogen (Instrumentation Laboratories), PT fibrinogen recombinant (Instrumentation Laboratories), Thromboplastin C plus ( Siemens) and Simplastin Excel (Biomerieux).
# [8] = system: pooled human citrated plasma; assay: Prothrombin time (PT) clotting assay with PT fibrinogen recombinant
# Description: as §1, §2, §3, §6
# [9] = system: pooled human citrated plasma; assay: Prothrombin time (PT) clotting assay with Thromboplastin C plus
# Description: as §1, §2, §3, §6
# [10] = system: pooled human citrated plasma; assay: Prothrombin time (PT) clotting assay with Simplastin Excel
# Description: as §1, §2, §3, §6
# [11] = system: pooled human citrated plasma; assay: PT clotting assay with Simplastin Excel S in presence of RVV-V; conditions: RVV-V added prior to the clotting experiment, Figure 2
# Description: as §1
# as §4, with “detection). […]” for “detection).”
# as §5
# [12] = system: pooled human citrated plasma; assay: PT clotting assay with Innovin in presence of RVV-V; conditions: Figure 2
# Description: as §1
# as §4, with “detection). […]” for “detection).”
# as §5
# [13] = 200 ng/ml rivaroxaban spiked in plasma
# [14] = 600 ng/ml rivaroxaban spiked in plasma
# [15] = PT ratio compared to reference value ("0"), up to 600 ng/ml rivaroxaban
structure (smiles),measurement,setting,value
"O=C(NC[C@H]1CN(c2ccc(N3CCOCC3=O)cc2)C(=O)O1)c1ccc(Cl)s1 [rivaroxaban, Rivaroxaban]",Sensitivity of PT assay for rivaroxaban,"[1]; Simplastin Excel S and/or Triniclot Excel S, within the therapeutic range (ratio window 2 - 5)",high sensitivity
same,Rivaroxaban-prolonged PT,"[1]; Simplastin Excel S, without RVV-V, 200 -",80 s
same,Prothrombin time,"[1]; Simplastin excel S, 200 µg/ml rivaroxaban spiked in plasma",41.0 s
same,Ratio range,"[1]; Simplastin excel S, PT ratio compared to reference value (""0""), up",1.0-5.0
same,Prothrombin time,"[1]; Simplastin excel S, spiked in plasma",80.8 s
same,Prothrombin time,[2]; [13],12.0 s
same,Prothrombin time,[2]; [14],17.1 s
same,Ratio range,[2]; [15],1.0- 1.8
same,Change in PT for rivaroxaban,"[2]; without RVV-V, Figure 2",no significant change in PT
same,Prothrombin time,[3]; [13],20.0 s
same,Prothrombin time,[3]; [14],35.0 s
same,Ratio range,[3]; [15],1.0-2.6
same,Prothrombin time,[4]; [13],16.8 s
same,Prothrombin time,[4]; [14],26.2 s
same,Ratio range,[4]; [15],1.0-2.5
same,Prothrombin time,[5]; [13],21.1 s
same,Prothrombin time,[5]; [14],26.7 s
same,Ratio range,[5]; [15],1.0-1.7
same,Prothrombin time,[6]; [14],51.6 s
same,Ratio range,[6]; [15],1.0-2.4
same,Prothrombin time,[7]; [13],38.5 s
same,Prothrombin time,[7]; [14],62.7 s
same,Ratio range,[7]; [15],1.0-2.8
same,Prothrombin time,[8]; [13],32.9 s
same,Prothrombin time,[8]; [14],45.4 s
same,Ratio range,[8]; [15],1.0-1.9
same,Prothrombin time,[9]; [13],44.3 s
same,Prothrombin time,[9]; [14],73.5 s
same,Ratio range,[9]; [15],1.0-3.1
same,Prothrombin time,[10]; [13],40.0 s
same,Prothrombin time,[10]; [14],63.1 s
same,Ratio range,[10]; [15],1.0-3.1
same,Effect of RVV-V on prolonged PT,[11],completely vanished
same,Change in PT for rivaroxaban,[12],no significant change in PT
